Experimental data from ChEMBL document CHEMBL1201862, “PubChem BioAssay data set” (2004).
Calls of active or inactive are those of the source.

Key:
[1] = molecular target: Polyadenylate-binding protein 1 (Homo sapiens, UniProt P11940); test: blockers of PABP interaction with poly(A) – biochemical, fluorescence polarization, […] (AID 2014)
[2] = molecular target: Eukaryotic translation initiation factor 4H (Homo sapiens, UniProt Q15056); test: eIF4H binding inhibition – biochemical, uHTS, fluorescence polarization, translation initiation inhibitor project, primary screen (AID 2012)
[3] = viability of uninfected HEp-2 cells – cell-based, HTS, cytotoxicity control for RSV inhibitor project, dose response (AID 2410); format: functional; details: human respiratory syncytial virus
cells [4] = test: cells
Insulin-degrading enzyme = Insulin-degrading enzyme (Homo sapiens, UniProt P14735); test: Dose Response: Fluorescence polarization-based cell-based high throughput dose response assay for inhibitors of insulin-degrading enzyme (IDE). [Related pubchem assays: 434962 (Primary screen (IDE inhibitors in singlicate)), 449730 (Counterscreen (Cytotoxicity in triplicate)), 435028 (Confirmation (IDE inhibitors in triplicate)), 434984 (Summary …; format: functional
Chain of Insulin-degrading enzyme (P14735 whole entry): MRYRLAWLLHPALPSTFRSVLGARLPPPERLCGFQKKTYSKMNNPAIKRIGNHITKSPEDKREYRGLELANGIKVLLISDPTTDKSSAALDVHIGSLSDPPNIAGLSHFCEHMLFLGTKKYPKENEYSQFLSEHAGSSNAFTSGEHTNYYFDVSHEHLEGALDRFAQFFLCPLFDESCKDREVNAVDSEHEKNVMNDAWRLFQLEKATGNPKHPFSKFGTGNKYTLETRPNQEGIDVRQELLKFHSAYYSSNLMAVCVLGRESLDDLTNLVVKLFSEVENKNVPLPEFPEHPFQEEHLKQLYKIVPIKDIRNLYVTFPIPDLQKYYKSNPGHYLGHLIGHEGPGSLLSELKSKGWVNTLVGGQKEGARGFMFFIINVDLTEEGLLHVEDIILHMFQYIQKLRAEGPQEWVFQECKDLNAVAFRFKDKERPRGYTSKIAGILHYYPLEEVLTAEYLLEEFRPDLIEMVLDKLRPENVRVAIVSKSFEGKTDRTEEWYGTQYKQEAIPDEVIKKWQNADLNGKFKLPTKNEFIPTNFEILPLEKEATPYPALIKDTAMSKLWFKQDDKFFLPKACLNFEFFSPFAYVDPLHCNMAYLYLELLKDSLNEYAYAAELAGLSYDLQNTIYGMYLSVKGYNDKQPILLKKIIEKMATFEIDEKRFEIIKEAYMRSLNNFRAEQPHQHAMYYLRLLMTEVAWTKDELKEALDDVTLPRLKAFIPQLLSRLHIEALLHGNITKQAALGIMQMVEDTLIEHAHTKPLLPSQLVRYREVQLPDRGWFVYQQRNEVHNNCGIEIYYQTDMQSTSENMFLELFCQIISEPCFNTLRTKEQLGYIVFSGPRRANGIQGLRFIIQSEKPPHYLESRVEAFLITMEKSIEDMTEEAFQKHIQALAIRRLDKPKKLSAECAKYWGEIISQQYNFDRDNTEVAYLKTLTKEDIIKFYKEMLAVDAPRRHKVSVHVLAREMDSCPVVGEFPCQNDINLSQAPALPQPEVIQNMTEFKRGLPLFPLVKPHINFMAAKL

[5] = Counterscreen for IDE inhibitors: Luminescence-based cell-based high throughput dose response assay to identify compounds that are cytotoxic to HEK cells. [Related pubchem assays: 434962 (Primary screen (IDE inhibitors in singlicate)), 449730 (Counterscreen (Cytotoxicity in triplicate)), 435028 (Confirmation (IDE inhibitors in triplicate)) …; format: functional; details: HEK293
Staphylococcus aureus = test: Inhibitors of Bacterial Quorum Sensing Structure Activity Relationship (SAR) Analysis: Dose Response Assay. [Related pubchem assays: 700, 527 ]; format: functional, organism-based
[6] = molecular target: T1, Aryl hydrocarbon receptor (Homo sapiens, UniProt P35869); test: Luminescence-based cell-based high throughput dose response assay for activators of the Aryl Hydrocarbon Receptor (AHR). [Related pubchem assays: 2796 (Primary screen (AHR activators in singlicate)), 2845 (Confirmation screen (AHR activators in triplicate)), 434939 (Counterscreen (PXR activators in triplicate)), 2804 (Summary (AHR activators))]; format: ADME
T1 sequence (P35869 whole entry): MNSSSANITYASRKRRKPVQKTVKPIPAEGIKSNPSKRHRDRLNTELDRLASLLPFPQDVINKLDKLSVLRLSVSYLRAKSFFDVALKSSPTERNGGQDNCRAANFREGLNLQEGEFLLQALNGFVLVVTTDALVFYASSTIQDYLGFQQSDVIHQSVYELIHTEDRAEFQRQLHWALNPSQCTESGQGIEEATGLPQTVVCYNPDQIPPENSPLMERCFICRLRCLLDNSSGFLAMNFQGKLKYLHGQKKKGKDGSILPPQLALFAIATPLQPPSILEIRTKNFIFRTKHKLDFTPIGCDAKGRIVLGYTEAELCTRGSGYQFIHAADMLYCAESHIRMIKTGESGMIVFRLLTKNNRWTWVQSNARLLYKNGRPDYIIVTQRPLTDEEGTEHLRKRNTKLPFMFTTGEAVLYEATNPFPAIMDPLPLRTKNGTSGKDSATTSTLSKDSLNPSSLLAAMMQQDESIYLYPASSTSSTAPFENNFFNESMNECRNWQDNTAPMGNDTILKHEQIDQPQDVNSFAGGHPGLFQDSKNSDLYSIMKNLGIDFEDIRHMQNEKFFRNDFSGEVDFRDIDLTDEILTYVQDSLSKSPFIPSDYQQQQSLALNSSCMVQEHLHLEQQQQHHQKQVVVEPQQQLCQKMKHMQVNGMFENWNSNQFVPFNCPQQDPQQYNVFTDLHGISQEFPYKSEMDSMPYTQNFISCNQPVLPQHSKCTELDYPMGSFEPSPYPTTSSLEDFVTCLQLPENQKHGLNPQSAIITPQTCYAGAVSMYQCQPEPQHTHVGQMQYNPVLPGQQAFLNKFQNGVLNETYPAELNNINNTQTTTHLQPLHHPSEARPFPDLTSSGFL

[7] = molecular target: T2, Zinc finger protein mex-5 (Caenorhabditis elegans, UniProt Q9XUB2); test: potency of MEX-5 RNA-binding blockers – biochemical, C. elegans, fluorescence polarization, dose response (AID 1960)
T2 sequence (Q9XUB2 whole entry): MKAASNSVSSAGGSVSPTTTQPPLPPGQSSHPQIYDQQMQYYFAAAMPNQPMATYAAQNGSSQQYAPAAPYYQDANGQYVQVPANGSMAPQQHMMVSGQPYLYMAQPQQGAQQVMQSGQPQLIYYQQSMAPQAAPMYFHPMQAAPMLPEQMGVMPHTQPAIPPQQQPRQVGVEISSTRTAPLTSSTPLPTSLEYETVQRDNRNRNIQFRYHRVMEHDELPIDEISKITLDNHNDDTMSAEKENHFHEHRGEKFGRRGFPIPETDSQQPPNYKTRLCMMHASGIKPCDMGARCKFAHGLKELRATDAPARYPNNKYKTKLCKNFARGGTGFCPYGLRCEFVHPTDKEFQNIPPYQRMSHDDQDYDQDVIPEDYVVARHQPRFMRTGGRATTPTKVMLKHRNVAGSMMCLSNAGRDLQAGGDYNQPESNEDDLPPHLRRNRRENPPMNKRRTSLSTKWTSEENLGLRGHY

[8] = molecular target: T3, RNA-binding protein pos-1 (Caenorhabditis elegans, UniProt G5EF15); test: disruptors of C. elegans POS-1 RNA interaction – biochemical, fluorescence polarization, dose response (AID 1964);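 note: purified POS-1 fused to maltose binding protein made in E. coli; potency of compounds blocking POS-1 binding to fluorescent RNA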
T3 sequence (G5EF15 whole entry): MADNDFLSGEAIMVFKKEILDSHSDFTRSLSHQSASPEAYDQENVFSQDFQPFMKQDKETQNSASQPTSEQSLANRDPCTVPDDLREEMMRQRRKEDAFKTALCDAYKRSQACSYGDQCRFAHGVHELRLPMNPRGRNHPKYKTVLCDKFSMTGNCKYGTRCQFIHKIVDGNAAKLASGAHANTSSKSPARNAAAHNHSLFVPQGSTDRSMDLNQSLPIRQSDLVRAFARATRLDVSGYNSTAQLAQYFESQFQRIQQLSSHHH

[9] = alpha-synuclein stem-loop translation blockers – luminescence, H4 neuroglioblastoma cells, dose confirmation, confirmation (AID 2454); format: functional, cell-based;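 note: H4 neuroglioblastoma cells carrying an alpha-synuclein 5'UTR luciferase reporter; potency for inhibition of the luciferase signal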
[10] = Luminescence Cell-Based Dose Response HTS to Identify Inhibitors of 5'UTR Stem-Loop Driven Prion Protein mRNA Translation in H4 Neuroglioblastoma Cells. [Related pubchem assays: 1827 (Project Summary), 1813 (Primary HTS)]; format: functional
[11] = alpha-synuclein stem-loop luciferase translation blockers – H4 neuroglioma cells, luminescence, confirmation (AID 1988); format: functional, cell-based
INS1 = test: INS-1E survival protection against cytokine death – cell-based, luminescence, retest, dose response (AID 449756); format: functional; details: Rattus norvegicus;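 note: cell death triggered by IL-1 beta plus TNF-alpha plus IFN-gamma mixture; protective hits raise ATP signal compared with cytokine alone wells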
[12] = luciferase reporter signal reduction – luminescence, H4-C neuroglioblastoma cells, dose response (AID 2458); format: functional, cell-based;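 note: H4 neuroglioblastoma cells stably carrying a luciferase reporter gene fusion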
cells [13] = format: functional, cell-based
Albumin = Albumin (Bos taurus, UniProt P02769); test: Counterscreen for inhibitors of T-cell receptor (TCR)-CD3 interaction: Fluorescence-based biochemical high throughput dose response assay to identify inhibitors of T-cell receptor (TCR)-CD3 interaction using a TAMRA-labeled BSA probe.; format: functional
Chain of Albumin (P02769 whole entry): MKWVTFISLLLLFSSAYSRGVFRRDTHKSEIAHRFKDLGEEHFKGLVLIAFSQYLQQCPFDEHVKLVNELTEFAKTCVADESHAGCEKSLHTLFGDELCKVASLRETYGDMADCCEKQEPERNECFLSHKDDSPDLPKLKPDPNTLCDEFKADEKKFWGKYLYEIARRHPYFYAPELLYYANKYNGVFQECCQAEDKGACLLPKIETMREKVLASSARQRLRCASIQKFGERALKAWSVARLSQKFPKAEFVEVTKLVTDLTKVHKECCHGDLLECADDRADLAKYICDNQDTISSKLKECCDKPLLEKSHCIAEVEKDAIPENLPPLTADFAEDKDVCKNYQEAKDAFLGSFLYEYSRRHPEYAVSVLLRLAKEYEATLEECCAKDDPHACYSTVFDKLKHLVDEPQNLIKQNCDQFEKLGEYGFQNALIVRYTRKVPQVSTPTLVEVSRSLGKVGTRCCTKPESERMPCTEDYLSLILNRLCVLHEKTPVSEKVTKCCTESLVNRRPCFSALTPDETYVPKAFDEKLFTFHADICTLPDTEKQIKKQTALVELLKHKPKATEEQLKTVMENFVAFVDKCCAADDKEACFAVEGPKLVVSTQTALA

HT-1080 = test: HT1080 cell viability loss – fluorescence readout (AID 620); format: functional, cell-based; details: Homo sapiens
HEK293 = test: EBV LMP1 TES2 canonical NF-kB signalling blockers – cell-based, HEK293, luciferase, cherry-pick, dose response (AID 588343); format: functional; details: Homo sapiens
[14] = molecular target: Luciferin 4-monooxygenase (Photinus pyralis, UniProt P08659); test: Counter Screen for Luciferase-based Assay Positives. [Related pubchem assays: 620, 618, 411 ]
Chain of Luciferin 4-monooxygenase (P08659 whole entry): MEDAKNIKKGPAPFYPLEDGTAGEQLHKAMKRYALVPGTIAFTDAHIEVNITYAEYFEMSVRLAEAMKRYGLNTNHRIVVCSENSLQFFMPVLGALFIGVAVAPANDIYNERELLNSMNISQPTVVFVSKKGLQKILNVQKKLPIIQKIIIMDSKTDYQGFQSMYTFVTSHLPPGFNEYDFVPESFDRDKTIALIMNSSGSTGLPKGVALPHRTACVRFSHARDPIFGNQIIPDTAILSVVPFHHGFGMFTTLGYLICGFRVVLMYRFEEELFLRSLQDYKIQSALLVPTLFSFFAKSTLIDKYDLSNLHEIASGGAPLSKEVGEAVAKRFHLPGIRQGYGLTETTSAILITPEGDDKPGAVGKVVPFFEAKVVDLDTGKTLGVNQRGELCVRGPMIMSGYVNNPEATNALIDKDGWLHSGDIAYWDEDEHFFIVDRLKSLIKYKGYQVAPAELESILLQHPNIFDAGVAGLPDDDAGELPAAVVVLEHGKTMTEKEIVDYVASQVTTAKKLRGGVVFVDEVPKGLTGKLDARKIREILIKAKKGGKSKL

[15] = molecular target: Induced myeloid leukemia cell differentiation protein Mcl-1 (Homo sapiens, UniProt Q07820); format: functional
Chain of Induced myeloid leukemia cell differentiation protein Mcl-1 (Q07820 whole entry): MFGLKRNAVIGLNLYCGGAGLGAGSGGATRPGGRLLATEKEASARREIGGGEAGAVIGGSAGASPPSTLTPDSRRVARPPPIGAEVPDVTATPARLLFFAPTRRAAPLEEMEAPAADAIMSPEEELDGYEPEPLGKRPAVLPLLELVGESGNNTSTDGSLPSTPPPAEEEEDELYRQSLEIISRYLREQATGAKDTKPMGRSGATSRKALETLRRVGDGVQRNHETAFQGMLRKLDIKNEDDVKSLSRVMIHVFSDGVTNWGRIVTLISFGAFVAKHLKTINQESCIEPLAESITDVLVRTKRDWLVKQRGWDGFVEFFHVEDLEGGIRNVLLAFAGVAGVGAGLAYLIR

[16] = luciferase reporter signal suppression in cells – H4 neuroglioma cells, luminescence, dose response (AID 1990); format: functional, cell-based

Chain of Polyadenylate-binding protein 1 (P11940 whole entry): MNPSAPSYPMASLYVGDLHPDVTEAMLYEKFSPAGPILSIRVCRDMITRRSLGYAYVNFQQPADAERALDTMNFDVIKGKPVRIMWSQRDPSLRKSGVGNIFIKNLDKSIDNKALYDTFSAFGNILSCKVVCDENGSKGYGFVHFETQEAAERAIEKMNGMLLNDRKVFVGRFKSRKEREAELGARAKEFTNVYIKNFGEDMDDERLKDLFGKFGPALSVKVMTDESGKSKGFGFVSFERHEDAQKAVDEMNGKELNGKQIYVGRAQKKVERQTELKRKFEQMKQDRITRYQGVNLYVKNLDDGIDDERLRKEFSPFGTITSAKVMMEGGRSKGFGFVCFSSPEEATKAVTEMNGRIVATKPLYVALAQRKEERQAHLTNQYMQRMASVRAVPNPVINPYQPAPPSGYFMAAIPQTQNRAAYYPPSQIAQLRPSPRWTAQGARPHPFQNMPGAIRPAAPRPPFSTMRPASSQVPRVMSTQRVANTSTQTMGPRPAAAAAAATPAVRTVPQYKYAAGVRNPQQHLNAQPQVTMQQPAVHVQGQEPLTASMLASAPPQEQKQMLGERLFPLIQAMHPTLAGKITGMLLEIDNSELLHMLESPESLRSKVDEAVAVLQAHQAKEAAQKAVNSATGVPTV

CC1=C(C(=O)OC(C)C)C(c2ccco2)NC(=O)N1 (centres undefined)
IC50 [1]: 42.8 µM (active) | IC50 [2]: 34.7 µM (active)

COCc1cc(C)nc(SCC(=O)Nc2ccccc2N2CCOCC2)c1C#N
CC50 [3]: > 50 µM (active) | IC50 (cells [4]): 9.24 µM (active)

Cc1cccc(Nc2nc(N)c(C#N)c(CC#N)c2C#N)c1
IC50 (Insulin-degrading enzyme): > 56 µM (not active) | IC50 [5]: 29.6 µM (not active)

COc1ccc(NC(=O)C(c2cc3c(cc2[N+](=O)[O-])OCO3)N2CC(C)CC(C)C2)cc1 (centres undefined)
IC50 (Staphylococcus aureus): 1.31 µM (active)

NS(=O)(=O)c1ccc(-c2ccc(/C=C3\SC(=O)NC3=O)o2)cc1
EC50 [6]: 0.237 µM (active) | EC50 [7]: 33.4 µM (active) | EC50 [8]: > 300 µM (not active)

CC(=O)N(C(C)=O)c1nc(-c2ccccc2)cn1/N=C/c1ccccc1
IC50 (Insulin-degrading enzyme): > 55.9 µM (not active) | IC50 [5]: 20 µM (not active)

C/C(=N\NC(=O)c1c(C)nc2ccccn12)c1ccc(O)cc1O
EC50 [9]: > 12 µM (inconclusive) | EC50 [10]: < 0.1 µM (active) | EC50 [11]: < 0.1 µM (active) | AC50 (INS1): 0.586 µM (active) | EC50 [12]: 0.739 µM (active) | EC50 (cells [13]): 0.901 µM (active) | IC50 (Albumin): > 94.1 µM (inactive)

C/C(=N/NC(=O)c1cc(C2CC2)[nH]n1)c1cccs1
EC50 (HT-1080): > 50 µM (not active) | AC50 (HEK293): 1.63 µM (active) | EC50 [14]: > 100 µM (not active)

CCO/C(O)=C1\C(C)=NC2=C(C(=O)CC(C)(C)C2)C1c1ccc2c(c1)CCCN2C (centres undefined)
IC50 [15]: 1.65 µM (not active)

CC(=O)O[C@@H]1/C=C/[C@](C)(O)C[C@@H](C)C/C=C/[C@H]2[C@@H]3O[C@]3(C)[C@@H](C)[C@H]3[C@H](Cc4ccccc4)NC(=O)[C@@]312 [EPOXYCYTOCHALASIN H]
EC50 [9]: 0.403 µM (active) | EC50 [10]: < 0.1 µM (active) | EC50 [11]: < 0.1 µM (active) | EC50 [16]: < 0.1 µM (active) | EC50 [12]: 0.431 µM (active) | EC50 (cells [13]): 0.608 µM (active)
